Consider 14 compounds from ChEMBL document CHEMBL1201862, “PubChem BioAssay data set” (2004).

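All cell lines were grown in 96-well plates and treated with compound for 48 hours. GI50 is the concentration that inhibits growth by half.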 Active and inactive are the calls of the source. Rule as the data show it: active = GI50 up to about 1.1 µM and inactive = higher.

Test systems include A498; HCT-116; HCT-15; HL-60; HOP-62; M14; MOLT-4; Malme-3M; NCI-H460; SF-268; SK-MEL-28; SK-MEL-5; SK-OV-3; SNB-19; SNB-75; SR.
Experiment in all cases: NCI anticancer screen, dose series, 48 h

Turning to `O=C1CCCC[C@H]1[C@H]1CCC[C@@H]([C@H]2CCCCC2=O)C1=O`, the GI50 was > 100 µM (inactive) with A498; > 100 µM (inactive) in the experiment on HCT-116; more than 100 µM in the experiment on HCT-15; > 100 µM (inactive) in the experiment with HL-60; > 100 µM (inactive) with HOP-62; > 100 µM (inactive) in the experiment with M14. The GI50 in the experiment on MOLT-4, in the experiment with Malme-3M, in the experiment on NCI-H460, in the experiment on SF-268, with SK-MEL-28 and in the experiment on SK-MEL-5 was > 100 µM (inactive) each time. Moreover, the GI50 in the experiment with SK-OV-3, in the experiment on SNB-19, with SNB-75 and in the experiment with SR was > 100 µM (inactive) in each case.
`Cc1ccc(S(=O)(=O)CNC(=S)CCCC(=S)NCS(=O)(=O)c2ccc(C)cc2)cc1`: the GI50 in the experiment on A498 is > 100 µM (inactive); in the experiment with HCT-116, 49 µM (inactive); with HCT-15, 53.8 µM; with HL-60, 16.1 µM (inactive); in the experiment with HOP-62, > 100 µM (inactive); with M14 it was > 100 µM (inactive). Further, the GI50 in the experiment on MOLT-4 is 22.2 µM (inactive); with Malme-3M it was 50.7 µM (inactive); in the experiment on NCI-H460, > 100 µM (inactive); in the experiment with SF-268, > 100 µM (inactive); in the experiment on SK-MEL-5 it was 79.1 µM (inactive); with SK-OV-3 it was > 100 µM (inactive). For the same compound, the results for the GI50 with SNB-19, with SNB-75 and in the experiment on SR were > 100 µM (inactive), > 100 µM (inactive) and 32.7 µM (inactive), respectively.
Turning to `COc1cccc2c1C(=O)c1c(O)c3c(c(O)c1C2=O)CC(O)(C(C)=O)CC3OC1CC([N+](C)(C)C)C(O)C(C)O1` (stereo not given), the GI50 in the experiment on A498 was > 100 µM (inactive); in the experiment on HCT-116, 66.8 µM (inactive); in the experiment with HCT-15, more than 100 µM; with HL-60 it was 24 µM (inactive); with HOP-62 it was > 100 µM (inactive); with M14 it was > 100 µM (inactive). The GI50 in the experiment with MOLT-4 was 12.4 µM (inactive); in the experiment on Malme-3M it was > 100 µM (inactive); with NCI-H460 it was 36.4 µM (inactive); in the experiment with SF-268, > 100 µM (inactive); in the experiment on SK-MEL-28, > 100 µM (inactive); in the experiment with SK-MEL-5 it was > 100 µM (inactive). Besides, the GI50 in the experiment on SK-OV-3 is > 100 µM (inactive); in the experiment on SNB-19, > 100 µM (inactive); with SNB-75, 52.2 µM (inactive); with SR it was 5.24 µM (inactive).
For the compound `COc1cc(C(=C2SCCS2)c2nccc3cc(OC)c(OC)cc23)c([N+](=O)[O-])cc1OC`, the GI50 in the experiment with A498 is > 100 µM (inactive); in the experiment on HCT-116 it was 80.4 µM (inactive); in the experiment with HL-60 it was 10.5 µM (inactive); in the experiment with HOP-62 it was > 100 µM (inactive); in the experiment on M14, 89.9 µM (inactive); with MOLT-4, 21.6 µM (inactive). For the same compound, the GI50 is 74.3 µM (inactive) in the experiment on Malme-3M; 80.9 µM (inactive) with SF-268; > 100 µM (inactive) in the experiment on SK-MEL-28; 23.7 µM (inactive) in the experiment on SK-MEL-5; 65.9 µM (inactive) with SK-OV-3; > 100 µM (inactive) in the experiment on SNB-19. Moreover, the GI50 with SNB-75 was 45.1 µM (inactive); in the experiment with SR, 21.7 µM (inactive).
`COC(=O)N/N=C/C(=C/Nc1ccccc1)[N+](=O)[O-]`: the GI50 in the experiment with HCT-116 was > 100 µM (inactive); in the experiment on HCT-15, 59 µM; with HL-60, > 100 µM (inactive); in the experiment on HOP-62 it was > 100 µM (inactive); in the experiment with M14 it was > 100 µM (inactive); with MOLT-4, > 100 µM (inactive). The GI50 with NCI-H460, with SF-268, with SK-MEL-28, with SK-MEL-5, in the experiment with SK-OV-3 and with SNB-19 was > 100 µM (inactive) throughout. Besides, the GI50 in the experiment on SR was > 100 µM (inactive).
Take `Nc1nc(CCc2n[nH]c(N)n2)n[nH]1`: the GI50 in the experiment on A498 is > 100 µM (inactive); with HCT-116, > 100 µM (inactive); in the experiment on HCT-15, more than 100 µM; in the experiment with HL-60, > 100 µM (inactive); in the experiment on HOP-62, > 100 µM (inactive); with M14, > 100 µM (inactive). Further, the GI50 with MOLT-4, with Malme-3M, in the experiment on NCI-H460, in the experiment with SF-268, in the experiment with SK-MEL-28 and with SK-MEL-5 was > 100 µM (inactive) in each case. Also, the GI50 with SK-OV-3, in the experiment on SNB-19 and in the experiment on SNB-75 was > 100 µM (inactive) throughout.
With `CC(=O)NC1C(OCc2ccccc2)OC(COC(=O)CCCCCCCCCCNc2ccc([N+](=O)[O-])c3[nH]c4ccccc4c(=O)c23)C(O)C1OC(C)C(=O)NC(C)C(=O)NC(CCC(N)=O)C(=O)OCc1ccccc1` (stereo not given), the GI50 is > 100 µM (inactive) with A498; > 100 µM (inactive) in the experiment with HCT-116; more than 100 µM with HCT-15; > 100 µM (inactive) with HL-60; > 100 µM (inactive) in the experiment on HOP-62; > 100 µM (inactive) with M14. The GI50 in the experiment with MOLT-4, in the experiment with NCI-H460, in the experiment on SF-268, in the experiment on SK-MEL-28, in the experiment with SK-MEL-5 and in the experiment with SK-OV-3 was > 100 µM (inactive) in each case. Moreover, the GI50 in the experiment with SNB-19, with SNB-75 and in the experiment on SR was > 100 µM (inactive) throughout.
For the compound `Sc1ccccc1S`, the GI50 in the experiment with HCT-15 is more than 100 µM; with HL-60, > 100 µM (inactive); in the experiment with HOP-62, > 100 µM (inactive); in the experiment with M14, > 100 µM (inactive); in the experiment on Malme-3M, > 100 µM (inactive); with NCI-H460, > 100 µM (inactive). The GI50 with SF-268, with SK-MEL-28, in the experiment with SK-OV-3 and in the experiment on SNB-19 was > 100 µM (inactive) throughout.
As for `N#C[C-](C#N)[n+]1ccc(Cl)cc1`, the GI50 with A498 was 28.7 µM (inactive); in the experiment on HCT-116, 14.5 µM (inactive); with HCT-15, 14.4 µM; in the experiment with HL-60, 4.27 µM (inactive); with HOP-62 it was 29.2 µM (inactive); with M14 it was 17 µM (inactive). The GI50 is 12.7 µM (inactive) in the experiment with MOLT-4; 15.8 µM (inactive) in the experiment with Malme-3M; 22.5 µM (inactive) with NCI-H460; 14.4 µM (inactive) in the experiment with SF-268; 16.1 µM (inactive) in the experiment on SK-MEL-5; 34 µM (inactive) with SK-OV-3. Further, the GI50 is 32.1 µM (inactive) in the experiment with SNB-19, 17.5 µM (inactive) with SNB-75 and 14.4 µM (inactive) with SR.
On to `CC1=C(C(=O)CC(=O)C(=O)Nc2cccc(Cl)c2C)Sc2ccccc2N1`, for which the GI50 in the experiment with HCT-116 is > 100 µM (inactive); in the experiment on HCT-15, more than 100 µM; in the experiment on HL-60 it was > 100 µM (inactive); with HOP-62, > 100 µM (inactive); in the experiment with M14 it was > 100 µM (inactive); with MOLT-4 it was > 100 µM (inactive). Moreover, the GI50 with Malme-3M, in the experiment on NCI-H460, with SF-268, with SK-MEL-28, in the experiment on SK-MEL-5 and in the experiment on SK-OV-3 was > 100 µM (inactive) each time. Also, the GI50 in the experiment with SNB-19 and with SR was > 100 µM (inactive) in each case.
`Cc1c2cc[n+](C)cc2c(C)c2c1[nH]c1ccc(OC(C)(C)C)cc12`: the GI50 in the experiment with A498 is > 100 µM (inactive); with HCT-116, > 100 µM (inactive); in the experiment on HCT-15 it was more than 100 µM; in the experiment on HL-60 it was > 100 µM (inactive); in the experiment on HOP-62, > 100 µM (inactive); in the experiment on M14, > 100 µM (inactive). Also, the GI50 with MOLT-4, with Malme-3M, with NCI-H460, with SF-268, in the experiment with SK-MEL-28 and with SK-MEL-5 was > 100 µM (inactive) throughout. The GI50 with SK-OV-3, in the experiment on SNB-75 and in the experiment with SR was > 100 µM (inactive) each time.
For the compound `C/C(=N\NC(=O)CC(=O)Nc1ccc(Cl)cc1)c1cc2ccccc2oc1=O`, the GI50 is > 100 µM (inactive) in the experiment on HCT-116; more than 100 µM in the experiment on HCT-15; > 100 µM (inactive) in the experiment with HL-60; > 100 µM (inactive) in the experiment on HOP-62; > 100 µM (inactive) in the experiment on M14; > 100 µM (inactive) with MOLT-4. The GI50 in the experiment on Malme-3M, in the experiment with NCI-H460, in the experiment on SK-MEL-28, in the experiment on SK-MEL-5, with SK-OV-3 and in the experiment with SNB-19 was > 100 µM (inactive) throughout. In the experiment on SNB-75, the GI50 is 66.1 µM (inactive).
On to `O=S(=O)(c1ccccc1)N1CCC1c1ccccc1` (stereo not given), for which the GI50 in the experiment on A498 was > 100 µM (inactive); in the experiment on HCT-116, 87.5 µM (inactive); in the experiment with HCT-15, more than 100 µM; in the experiment with HL-60, 6.34 µM (inactive); with HOP-62, > 100 µM (inactive); in the experiment with M14, > 100 µM (inactive). For the same compound, the GI50 in the experiment on MOLT-4 was 33.7 µM (inactive); with Malme-3M, > 100 µM (inactive); in the experiment on NCI-H460, > 100 µM (inactive); in the experiment on SF-268, 87.1 µM (inactive); in the experiment with SK-MEL-28, > 100 µM (inactive); with SK-MEL-5, > 100 µM (inactive). The GI50 in the experiment on SK-OV-3 is > 100 µM (inactive); in the experiment with SNB-19, > 100 µM (inactive); in the experiment with SNB-75, 56.4 µM (inactive).
On to `CCCN(CCCCC(NC(C)=O)C(=O)NCc1ccccc1)C(=O)N(C)N=O` (stereo not given), for which the GI50 in the experiment with A498 was > 100 µM (inactive); in the experiment on HCT-116, > 100 µM (inactive); in the experiment with HCT-15 it was more than 100 µM; in the experiment on HOP-62 it was > 100 µM (inactive); in the experiment with M14, > 100 µM (inactive); with MOLT-4 it was 92 µM (inactive). For the same compound, the GI50 in the experiment with Malme-3M, with NCI-H460, in the experiment with SF-268, with SK-MEL-28, with SK-MEL-5 and in the experiment on SK-OV-3 was > 100 µM (inactive) in each case. In addition, the GI50 is > 100 µM (inactive) in the experiment on SNB-19 and 38.1 µM (inactive) in the experiment with SNB-75.
